Tested on: 186277-243-T-J2-PDC multi-cell spheroid viability
Experiment: Anticancer human tumor 186277-243-T-J2-PDC patient-derived colon adenocarcinoma cell line growth inhibition [PI3K]
Conditions: for viability, T/C: stronger effect = lower value; active means viability on the fitted dose curve at most 10% of control; inactive means the rest
Summary of the method: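 Three cell types, namely tumor cells, endothelial cells and mesenchymal stem cells, formed each spheroid. Combinations with four PI3K inhibitors were screened at clinically achievable concentrations decreasing by half-log, and spheroid viability was recorded.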

[1] = curve of first compound, second compound 0.00316 µM
[2] = curve of first compound, second compound 0.01 µM
[3] = curve of first compound, second compound 0.0316 µM
[4] = curve of first compound, second compound 0.1 µM
[5] = curve of first compound, second compound 0.316 µM
[6] = curve of first compound, second compound 1 µM
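Further: spheroids exposed to compounds for seven days before viability reading.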
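Wherever viability, T/C is given: 100% = DMSO vehicle control viability.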

Cn1cnc2c(F)c(Nc3ccc(Br)cc3Cl)c(C(=O)NOCCO)cc21 + COc1c(OCCCN2CCOCC2)ccc2c3n(c(=NC(=O)c4cnc(N)nc4)nc12)CCN3
< 9.49 nM: IC50 [3] | IC50 [4] | IC50 [5] | IC50 [6]
29.9 nM: IC50 [2]
active: viability, T/C (second compound 0.00316 µM, first compound 3 µM) 7.3% | viability, T/C (second compound 0.01 µM, first compound 0.949 µM) 8.98% | viability, T/C (second compound 0.01 µM, first compound 3 µM) 5.03% | viability, T/C (second compound 0.0316 µM, first compound 0.3 µM) 8.43% | viability, T/C (second compound 0.0316 µM, first compound 0.949 µM) 3.94% | viability, T/C (second compound 0.0316 µM, first compound 3 µM) 2.23% | viability, T/C (second compound 0.1 µM, first compound 0.03 µM) 7.23% | viability, T/C (second compound 0.1 µM, first compound 0.0949 µM) 5.32% | viability, T/C (second compound 0.1 µM, first compound 0.3 µM) 2.22% | viability, T/C (second compound 0.1 µM, first compound 0.949 µM) 0.6% | viability, T/C (second compound 0.1 µM, first compound 3 µM) 0.24% | viability, T/C (second compound 0.316 µM, first compound 0.00949 µM) 2.44% | viability, T/C (second compound 0.316 µM, first compound 0.03 µM) 1.09% | viability, T/C (second compound 0.316 µM, first compound 0.0949 µM) 1.66% | viability, T/C (second compound 0.316 µM, first compound 0.3 µM) 0.37% | viability, T/C (second compound 0.316 µM, first compound 0.949 µM) 0.45% | viability, T/C (second compound 0.316 µM, first compound 3 µM) 0.11% | viability, T/C (second compound 1 µM, first compound 0.00949 µM) 0.41% | viability, T/C (second compound 1 µM, first compound 0.03 µM) 0.28% | viability, T/C (second compound 1 µM, first compound 0.0949 µM) 0.32% | viability, T/C (second compound 1 µM, first compound 0.3 µM) 0.14% | viability, T/C (second compound 1 µM, first compound 0.949 µM) 0.15% | viability, T/C (second compound 1 µM, first compound 3 µM) 0.18%
73.9 nM: IC50 [1]
inactive: viability, T/C (second compound 0.00316 µM, first compound 0.00949 µM) 91.7% | viability, T/C (second compound 0.00316 µM, first compound 0.03 µM) 74.6% | viability, T/C (second compound 0.00316 µM, first compound 0.0949 µM) 38.3% | viability, T/C (second compound 0.00316 µM, first compound 0.3 µM) 28.9% | viability, T/C (second compound 0.00316 µM, first compound 0.949 µM) 13.1% | viability, T/C (second compound 0.01 µM, first compound 0.00949 µM) 81.6% | viability, T/C (second compound 0.01 µM, first compound 0.03 µM) 50% | viability, T/C (second compound 0.01 µM, first compound 0.0949 µM) 24.9% | viability, T/C (second compound 0.01 µM, first compound 0.3 µM) 11.7% | viability, T/C (second compound 0.0316 µM, first compound 0.00949 µM) 28.9% | viability, T/C (second compound 0.0316 µM, first compound 0.03 µM) 20.9% | viability, T/C (second compound 0.0316 µM, first compound 0.0949 µM) 13.5% | viability, T/C (second compound 0.1 µM, first compound 0.00949 µM) 14.6%

Cn1ncnc1[C@H]1c2n[nH]c(=O)c3cc(F)cc(c23)N[C@@H]1c1ccc(F)cc1
> 100 nM: IC50 (curve of compound)
inactive: viability, T/C (compound 0.000316 µM) 97.7% [middle of 4 runs] | viability, T/C (compound 0.001 µM) 94.7% [middle of 4 runs] | viability, T/C (compound 0.00316 µM) 97.8% [middle of 4 runs] | viability, T/C (compound 0.01 µM) 93% [middle of 4 runs] | viability, T/C (compound 0.1 µM) 93.6% [middle of 4 runs]

CC(=O)c1c(C)c2cnc(Nc3ccc(N4CCNCC4)cn3)nc2n(C2CCCC2)c1=O + COc1c(OCCCN2CCOCC2)ccc2c3n(c(=NC(=O)c4cnc(N)nc4)nc12)CCN3
active: viability, T/C (second compound 0.316 µM, first compound 0.000316 µM) 3.72% | viability, T/C (second compound 0.316 µM, first compound 0.001 µM) 3.94% | viability, T/C (second compound 0.316 µM, first compound 0.00316 µM) 6.08% | viability, T/C (second compound 0.316 µM, first compound 0.01 µM) 4.53% | viability, T/C (second compound 0.316 µM, first compound 0.0316 µM) 4.8% | viability, T/C (second compound 0.316 µM, first compound 0.1 µM) 5.23% | viability, T/C (second compound 1 µM, first compound 0.000316 µM) 3.84% | viability, T/C (second compound 1 µM, first compound 0.001 µM) 2.22% | viability, T/C (second compound 1 µM, first compound 0.00316 µM) 3.44% | viability, T/C (second compound 1 µM, first compound 0.01 µM) 3.39% | viability, T/C (second compound 1 µM, first compound 0.0316 µM) 2.44% | viability, T/C (second compound 1 µM, first compound 0.1 µM) 1.63%
inactive: viability, T/C (second compound 0.00316 µM, first compound 0.000316 µM) 101% | viability, T/C (second compound 0.00316 µM, first compound 0.001 µM) 107% | viability, T/C (second compound 0.00316 µM, first compound 0.00316 µM) 97.3% | viability, T/C (second compound 0.00316 µM, first compound 0.01 µM) 94.9% | viability, T/C (second compound 0.00316 µM, first compound 0.0316 µM) 112% | viability, T/C (second compound 0.00316 µM, first compound 0.1 µM) 113% | viability, T/C (second compound 0.01 µM, first compound 0.000316 µM) 110% | viability, T/C (second compound 0.01 µM, first compound 0.001 µM) 102% | viability, T/C (second compound 0.01 µM, first compound 0.00316 µM) 87.9% | viability, T/C (second compound 0.01 µM, first compound 0.01 µM) 91.7% | viability, T/C (second compound 0.01 µM, first compound 0.0316 µM) 117% | viability, T/C (second compound 0.01 µM, first compound 0.1 µM) 99.5% | viability, T/C (second compound 0.0316 µM, first compound 0.000316 µM) 64.2% | viability, T/C (second compound 0.0316 µM, first compound 0.001 µM) 67.2% | viability, T/C (second compound 0.0316 µM, first compound 0.00316 µM) 68.8% | viability, T/C (second compound 0.0316 µM, first compound 0.01 µM) 58.9% | viability, T/C (second compound 0.0316 µM, first compound 0.0316 µM) 51.3% | viability, T/C (second compound 0.0316 µM, first compound 0.1 µM) 47.2% | viability, T/C (second compound 0.1 µM, first compound 0.000316 µM) 15.6% | viability, T/C (second compound 0.1 µM, first compound 0.001 µM) 14.4% | viability, T/C (second compound 0.1 µM, first compound 0.00316 µM) 13.9% | viability, T/C (second compound 0.1 µM, first compound 0.01 µM) 17.4% | viability, T/C (second compound 0.1 µM, first compound 0.0316 µM) 11.6% | viability, T/C (second compound 0.1 µM, first compound 0.1 µM) 13.2%
> 100 nM: IC50 [1] | IC50 [2]
57.4 nM: IC50 [3]
< 0.316 nM: IC50 [4] | IC50 [5] | IC50 [6]

Reference: PubChem BioAssay AID1963983 (Molecular Pharmacology Branch, DTP, NCI, 2024)
